Measured values as given in patent US20230037862A1, “SYNTHETIC AGONISTS OF TLR4 RECEPTOR” (UNIVERSITÀ DEGLO STUDI DI MILANO - BICOCCA, priority 2017, published 2023).
“Also recorded” adds a separate entry of the source.

Columns and labels:
[1] = target: T1, purified human MD-2 receptor (Homo sapiens, UniProt Q9Y6Y9); assay: Anti-MD-2 antibody (9B4) competition, antibody-sandwich ELISA; format: binding
T1 sequence (Q9Y6Y9 19-160): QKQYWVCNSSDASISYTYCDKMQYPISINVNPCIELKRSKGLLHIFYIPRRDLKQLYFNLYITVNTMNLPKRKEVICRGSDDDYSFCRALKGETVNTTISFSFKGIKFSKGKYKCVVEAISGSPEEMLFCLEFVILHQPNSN
Method: The direct binding of molecules FP11 and FP111 to MD-2 was analyzed by using a monoclonal antibody binding MD-2, but not LPS-bound MD-2 (Viriyakosol, S., et al., Characterization of monoclonal antibodies to human soluble MD-2 protein. Hybridoma (Larchmt), 2006. 25(6): p. 349-57).
Anti-MD-2 monoclonal antibody (9B4) specifically binds an epitope near the MD-2 hydrophobic pocket, which is available for 9B4 antibody binding only when the MD-2 hydrophobic pocket is empty. Compound FP11 is accountable for a decrease of 9B4 antibody binding to MD-2 equal to 95% at a concentration of 20 μM (FIG. 3E).
The method of antibody-sandwich ELISA for the detection of the binding of compounds to MD-2 was modified from a previous study.
A microtiter plate was coated overnight at 4° C. with 100 μL/well of 5 μg/mL of chicken polyclonal anti-MD-2 antibodies, diluted in 50 mM Na2CO3 buffer, pH 9.6, and blocked with 1% BSA in PBS. After washing, 1 μM MD-2 with tested compounds was added and incubated for 2 h.
Mouse anti-MD-2 mAb (0.1 μg/mL 9B4) and goat antimouse IgG conjugated with HRP (0.1 μg/mL) in PBS were added, followed by detection at 420 nm after the addition of 100 μL of ABTS (Sigma).
Chicken anti-MD-2 polyclonal antibodies were prepared against recombinant MD-2 by GenTel (Madison, Wis., USA), monoclonal mouse anti-MD-9B4 antibodies were from eBioscience (San Diego, Calif., USA), and secondary goat antimouse IgG conjugated with horseradish peroxidase was from Santa Cruz Biotechnology (Santa Cruz, Calif., USA).

[2] = target: T1, purified human MD-2 receptor; assay: Surface plasmon resonance binding to MD-2
Method: Surface plasmon resonance (SPR) experiments enable the study of direct interactions between the molecules to be characterized and MD-2.
The binding affinity of the compounds to recombinant MD-2 was determined using a Biacore X100 with an NTA sensor chip (Biacore, GE Healthcare, Uppsala, Sweden). Briefly, 0.5 μM MD-2 (in 50 mM TRIS, 150 mM NaCl, 0.5% Tween 20, pH 7.5) was immobilized onto the sensor chip previously activated with 1 min pulse of 10 mM NiSO4. The first flow cell was used as a reference surface to control nonspecific binding.
Both flow cells were incubated with the analyte (in PBS, 5% DMSO, 5% EtOH, pH 7.5) at a flow rate of 10 μL/min at 25° C. at increasing concentrations. The data were analyzed with Biacore Evaluation software. KD values were calculated by global fitting of the equilibrium binding responses from various concentrations of analytes using a 1:1 Langmuir binding model.

HEK-Blue™ hTLR4 cells = assay: MTT cell viability assay; format: cell-based; conditions: 25 and 50 μM, 16-18 hours
Method: HEK-Blue™ hTLR4 cells were treated with the higher concentrations used in the preceding assays and incubated for 16-18 hours. Results were normalized to PBS addition and are expressed as mean of percentage ±ES. of at least three independent experiments.
Finally, compound FP11 cytotoxicity was assessed by MTT (3-(4,5-dimethylthiazol-2-yl)-2,5-diphenyltetrazolium bromide) viability assay. HEK-Blue™ hTLR4 cells were treated with the highest compound concentrations used in the preceding assay (25 and 50 μM).
HEK-Blue™ hTLR4 cells were grown in DMEM supplemented with 10% FBS, 2 mM glutamine and antibiotics.
Cells were seeded in 100 μL of DMEM without Phenol Red at a density of 4×10^4 cells per well and incubated overnight (37° C., 5% CO2 , 95% humidity).
Cells were treated with the higher dose of compound used in the previous experiments and incubated overnight. MTT solution (5 mg/mL in PBS) was added to each well, and after 3 h incubation, 0.1 N HCl in 2-propanol solution was used to dissolve formazan crystals.
Formazan concentration was determined by measuring the absorbance at 570 nm.
The results were normalized with untreated control (PBS) and expressed as the mean of percentage ±SEM of three independent experiments.

[3] = target: T1, purified human MD-2 receptor; assay: MD-2-bound fluorescent molecule (bis-ANS) displacement assay; format: binding; conditions: MD-2 200 nM, bis-ANS 200 nM
Method: therefore, TLR4 modulators that interact with MD-2 compete with compound bis-ANS, and are able to displace it from MD-2.
Fluorescence was measured on PerkinElmer fluorimeter LS 55 (PerkinElmer, UK) as previously described^[5].
All measurements were done at 20° C. in a 5×5 mm quartz glass cuvette (Hellma Suprasil, Müllheim, Germany). MD-2 protein (200 nM) and 1,1′-Bis(anilino)-4,4′-bis (naphtalene)-8,8′ disulfonate (bis-ANS, 200 nM) were mixed and incubated until reaching stable relative fluorescence units (RFUs) emitted at 420-550 nm under excitation at 385 nm.
Compounds, at different concentrations, were then added, followed by relative fluorescence unit (RFU) measurement at 420-550 nm.

HEK-Blue™ Null2 cells = assay: HEK-Blue Null2 counter-assay (SEAP reporter, no TLR4/MD-2/CD14); format: cell-based; conditions: 16-18 hours
Method: HEK-Blue™ hTLR4 (FIG. 1A) and HEK-Blue™ Null2 (FIG. 1B) cells were treated with the indicated concentrations of compounds FP11, FP111, and with LPS (100 ng/mL) and incubated for 16-18 hours. Results were normalized to stimulation with LPS alone, and are expressed as mean of percentage ±ES. of at least three independent experiments.
In order to be certain that the agonist effect of compound FP11 be due to the interaction with the TLR4 receptor, the compounds were tested on the HEK-Blue™ Null2 cell line. Said line expresses the same reporter gene of HEK-Blue™ hTLR4 cells (SEAP), but has none of the receptors involved in endotoxin recognition (TLR4, MD-2, CD14).

decrease of 9B4 antibody binding to MD-2 ([1]; 20 μM): 95%
Kd ([2]; SPR, 1:1 Langmuir binding model, 25° C.): 6.5 µM
Compound: CCCCCCCCCCCCCC(=O)NC1C(OC(=O)CCCCCCCCCCCCC)[C@H](OC(=O)CCCCCCCCCCCCC)C(CO)O[C@H]1OP(=O)(O)O (stereo partly drawn) [FP11, 1-O-Phosphoryl-2-deoxy-4-O-tetradecanoyl 3-O-tetradecanoyl-2-tetradecanoylamino-α-D-glucopiranoside]
prevention of monoclonal antibody 9B4 binding to MD-2 ([1]; up to 20 μM): prevents the binding of monoclonal antibody to MD-2 in a dose-dependent manner
direct binding to MD-2 (SPR) [2]: directly binds the MD-2 hydrophobic pocket
cytotoxicity (MTT viability) (HEK-Blue™ hTLR4 cells): not toxic at the concentrations assayed
decrease of bis-ANS fluorescence / inhibition of bis-ANS binding to MD-2 [3]: concentration-dependent decrease of compound bis-ANS fluorescence; also recorded: inhibits the binding of bis-ANS to MD-2 in a dose-dependent manner
activation of transcription factors NF-κB and AP-1 in cells without TLR4, MD-2, CD14 (HEK-Blue™ Null2 cells): unable to activate transcription factors NF-κB and AP-1
